Source: patent US6653319B1, “Pharmaceutical formulation for poorly water soluble camptothecin analogues” (University of Kentucky Research Foundation, priority 2001, dated 2003)
Converted amounts (≈) assume the structure as drawn. “Also recorded” adds a separate entry of the source.

How the values were obtained:
[1] = Solubilities of DB-67 in various solvent systems at 25° C. (excess drug, filtration, HPLC); assay type: physicochemical
Experimental: Solubilities of DB-67 or camptothecin in a given solvent system were determined by adding an amount of the drugs well in excess of its estimated solubility to 1-2 mL of the desired solvent in a 4-mL glass vial. The capped vial was rotated in a VWR2010 incubator set at 25° C. for a period of 3-15 days. The sample was then passed through a 0.45 μm filter, except for liposome or emulsion samples, which were passed through a 1.2 μm filter. The collected sample was weighed, diluted with methanol, and analyzed by HPLC. The HPLC system consisted of a Discovery C18 15 cm×4.6 mm column and a Discovery C18 2 cm×4.6 mm 5 μm guard column (Supelco), a Beckman 110B solvent delivery module, a Rheodyne M7125 injector with a […] (Rainin), a Waters M2487 Dual λ Absorbance detector set at 254 nm, an HP 3392A integrator, and a mobile phase of 25% and 41% (v/v) acetonitrile in 2% (w/v) triethylamine acetate for camptothecin and DB-67, respectively.
The solubility-pH profile for DB-67 in aqueous solution is presented in FIG. 2, where the curve is a […] using an equilibrium model for the base-catalyzed lactone-ring opening and ionization of substituents in DB-67 (10-OH and the —COOH when the lactone-ring is opened at a basic pH).

[2] = Solubility method to determine complex formation constant with SBE-CD; assay type: physicochemical
Experimental: (§1) To understand the complexation mechanisms behind this solubilization effect, a solubility method was employed to determine the formation constant between a camptothecin analogue and a cyclodextrin derivative. In the solubility experiment, the solution pH was controlled below 4.6 with a 30 mM citrate buffer.
(§2) In the limit of [CD]>>So, the relevant formation constants can be expressed as: […]
(§3) where So is the solubility in the absence of cyclodextrins, Kf^1:1 and Kf^1:2 are the 1:1 and 1:2 complex formation constants, and [CD] is concentration of cyclodextrin. A linear least-squares fit of the data for SBE-CD as shown in FIG. 3 yields the complex formation constant of Kf^1:1=8.5±0.2×10^3M^−1(r^2=0.999). […] The inability for SBE-CD to form 1:2 complexes with DB-67 apparently arises from the presence of an average of seven negatively charged sulfobutyl ether groups in a SBE-CD molecule preventing the approach of two SBE-CDs to each other to form 1:2 complexes. A least-squares fit of the data for HP-CD as shown in FIG. 3 according to Equation 1 yields the 1:1 and 1:2 complex formation constants of Kf^1:1=5.8±0.2×10^3M^−1 and […]±0.2 ×10^4M^−1(r^2=1.000).

[3] = Solubility method to determine complex formation constants with HP-CD; assay type: physicochemical
Experimental: as §1, §2, §3

[4] = Reaction kinetics of lactone-ring opening and closing (hydrolysis) in aqueous solution by HPLC; assay type: physicochemical
Experimental: The reaction kinetics for the E-ring opened and closed DB-67 were investigated in aqueous solutions at pH 7.4 and 4.0, respectively. The reactions were thermostated at 25±0.1° C. by a circulation water bath and initiated by adding 0.1 mL of reactants (Species I DB-67 in DMSO or Species II DB-67 in 2 mM NaOH; see FIG. 1) to a 30 mM phosphate or acetate buffer solution with an initial reactant concentration of 2-4×10^−6 M. After the addition and at different time intervals, aliquots of the reaction solutions were withdrawn and immediately assayed by HPLC. The concentrations of both species I and II were monitored in order to evaluate the mass balance and other possible degradation products. Simultaneous non-linear least-squares fits of the kinetic profiles yield the first-order rate constants for the lactone-ring opening and closing processes of kopen=1.1±0.1×10^−4 s^−1 and kclose=3.3±0.3×10^−4 s^−1.
We have also investigated the hydrolysis processes for the lactone-ring intact DB-67 (Species I) at pH 7.4 in the presence of 20% (w/v) SBE-CD and HP-CD, respectively. […] The fitted rate constants are kopen=(7.1±0.1)×10^−5s^−1 and kopen=(6.2±0.1)×10^−5s^−1 for 20% (w/v) SBE-CD and HP-CD, respectively. As noted above, the presence of 20% (w/v) SBE-CD or HP-CD reduces the rate for the lactone-ring opening process by 1.6- and 1.8-fold, respectively. The rate reduction is therefore more marked in the presence of HP-CD.

[5] = assay type: physicochemical
Experimental: A successful pharmaceutical formulation with a supersaturated drug concentration requires a physical stability with respect to drug precipitation. In our first attempt, 20-25 mg/mL of DB-67 was loaded in DMSO because of the drug's high solubility in this solvent. The dissolved DB-67 was then added slowly to a 20% (w/v) SBE-CD aqueous solution by a volume ratio of 1:9 to achieve a final drug concentration of 2 mg/mL. The dilution rate was maintained at 0.10 mL/min. […] A proper control of the release pattern (local or uniform) and rate of DB-67 into the dilution medium is therefore critical to the success of this type of formulation approach.
As described above, a slow and uniform release of DB-67 into a dilution medium may be accomplished by employing a chemical approach, namely by converting the E-ring opened DB-67 (Species II, see FIG. 1), which is highly water-soluble, to the neutral E-ring closed DB-67 (Species I) in a controlled fashion. […] Accordingly, 20 mg/mL of DB-67 was loaded in a sodium hydroxide solution with NaOH concentration maintained at twice that of the drug concentration. The prepared DB-67 alkaline aqueous solution was passed through a 0.2 μm filter before it was added slowly (0.11 mL/min) into 20% (w/v) acidic SBE-CD solution by a volume ratio of 1:9. In order to completely neutralize DB-67, HCl was present in the dilution solution in an amount equal to the amount of NaOH in the DB-67 alkaline solution. A small amount of acetate buffer (5 mM) was also included in the dilution medium to control the solution pH to about 4 in order to facilitate a timely conversion from the E-ring opened DB-67 to its E-ring closed counterpart.
Shortly after the lyophilization, the lyophilized sample was reconstituted and the stability of the reconstituted solution was examined following the same procedure as described above.
The precipitation profiles of DB-67 solutions containing other solubilizing agents such as liposomes and an acidic aqueous cosolvent solution comprising an equal volume mixture of ethanol and cremophor, prepared as described in Examples 3 and 4, respectively, were evaluated.

[6] = compared with FDA approved camptothecin analogs (Camptosar and Hycamtin); cited from earlier work
[7] = HP-CD, E-ring closed DB-67, pH below 4.6, 30 mM citrate buffer, fit to Equation 1

What does the source list for `CC[C@@]1(O)C(=O)OCc2c1cc1n(c2=O)Cc2c-1nc1ccc(O)cc1c2[Si](C)(C)C(C)(C)C` [DB-67, 7-t-butyldimethylsilyl-10-hydroxycamptothecin]?
S (solubility) ([1]; 5% Cremophor, 5% (v/v) in 5% (w/v) Dextrose/Water, 25° C., single sample): 200 µg/mL; S (solubility) ([1]; 10% (v/v) PEG-400/water, 25° C.): (3.3 ± 0.5) × 10^−2 mg/mL; S (solubility) ([1]; 40% (w/v) HPCD/water, 25° C.): (4.9 ± 0.2) × 10^−1 mg/mL; S (solubility) ([1]; 40% (w/v) SBE-CD/water/1 mM HCl, 25° C.): (2.09 ± 0.04) × 10^−1 mg/mL; S (solubility) ([1]; 40% PG, 10% (v/v) EtOH/water, 25° C.): (1.73 ± 0.04) × 10^−1 mg/mL; S (solubility) ([1]; 50% (v/v) PEG-400/water, 25° C.): (2.0 ± 0.3) × 10^−1 mg/mL; S (solubility) ([1]; 50% Cremophor, 50% (v/v) EtOH (Diluent-12), 25° C.): (7.5 ± 0.2) × 10^0 mg/mL; S (solubility) ([1]; Emulsion (20% soybean oil, 2% glycerin, 73% water, 4% Tween80, 1% eggPC), 25° C.): (2.06 ± 0.05) × 10^−1 mg/mL; S (solubility) ([1]; Liposome (70:25:5 (mole) DMPC:Chol:DMPG), 25° C.): (7.4 ± 0.3) × 10^−3 mg/mL; S (solubility) ([1]; Water/30 mM acetate buffer at pH 5.23, 25° C.): (1.11 ± 0.00) × 10^−5 mg/mL; S (solubility) ([1]; Water/0.5 M carbonate buffer at pH 10.20, 25° C., single sample): 178 µg/mL; solubility in an aqueous solution of acidic pH ([1]; pH 5.2, DB-67 mostly in E-ring intact form): 0.11 μg/mL; solubility in an aqueous solution ([1]; pH >10.2, mostly lactone-ring opened form): ~18000 µg/mL (≈ 37.6 mM); DB-67 bound to SBE-CD ([2]; 20% (w/v) SBE-CD, predominantly 1:1 complexes): more than 99.8%; 1:1 complex formation constant Kf^1:1 ([2]; SBE-CD, neutral E-ring intact DB-67, pH below 4.6, 30 mM citrate buffer, linear fit r^2=0.999): 8.5±0.2×10^3 M^−1; DB-67 included in the CD hydrophobic cavity ([3]; 20% (w/v) HP-CD): more than 99.9%; complexes in the form of 1:2 complexes ([3]; 20% (w/v) HP-CD): roughly 46%; 1:1 complex formation constant Kf^1:1 [3, 7]: 5.8±0.2×10^3 M^−1; 1:2 complex formation constant (printed as Kf^1:1) [3, 7]: 3.8±0.2 ×10^4 M^−1; reduction in the observed rate constant ([4]; 20% (w/v) HP-CD, pH 7.4): approximately 44%; reduction of the rate for the lactone-ring opening process ([4]; 20% (w/v) HP-CD, pH 7.4): 1.8 fold; reduction of the rate for the lactone-ring opening process ([4]; 20% (w/v) SBE-CD, pH 7.4): 1.6 fold; first-order rate constant for lactone-ring closing kclose ([4]; pH 4.0, 30 mM buffer, 25° C., no cyclodextrin): 3.3±0.3×10^−4 s^−1; first-order rate constant for lactone-ring opening kopen ([4]; pH 7.4, 30 mM buffer, 25° C., no cyclodextrin): 1.1±0.1×10^−4 s^−1; rate constant kopen ([4]; pH 7.4, in the presence of 20% (w/v) HP-CD): (6.2±0.1)×10^−5 s^−1; rate constant kopen ([4]; pH 7.4, in the presence of 20% (w/v) SBE-CD): (7.1±0.1)×10^−5 s^−1; overall DB-67 concentration in the solution over time ([5]; 2 mg/mL DB-67, 1:9 dilution of alkaline solution into 20% (w/v) acidic SBE-CD, pH 4.4): remained constant over an extended period of three days; time for conversion to E-ring closed DB-67 to be nearly complete ([5]; 20% (w/v) SBE-CD, measured solution pH 4.4): ≤ 100 min; precipitation on mechanical mixing of DB-67 in DMSO with 20% (w/v) SBE-CD ([5]; lactone-intact DB-67 in DMSO diluted into 20% (w/v) SBE-CD aqueous solution, final concentration >1 mg/mL (2 mg/mL, 1:9, 0.10 mL/min)): precipitation occurs immediately; also recorded: precipitation occurred even during the mixing process and continued after the finish of mixing; loss of DB-67 during the preparation process ([5]; stable solutions prepared by the present method): < 2%; potency in in vitro cytotoxicity assays [6]: comparable potency to other FDA approved camptothecin analogs
